Laboratory results: ChEMBL document CHEMBL4138121, “Selective photocytotoxicity of anthrols on cancer stem-like cells: The effect of quinone methides or reactive oxygen species” (Eur J Med Chem, 2017)
Activity calls are given as the source filed them. No cut-off for these calls is given here.

Tests used:
[1] = Photocytotoxicity against HMLE-shGFP cells assessed as growth inhibition irradiated at 350 nm at 4, 24, 48 hrs post compound addition for 5 mins measured after 72 hrs by MTT assay; format: cell-based; settings: Homo sapiens, light or radiation study
[2] = Cell cycle arrest in HMLE-shGFP cells assessed as delay in G1 phase at 5 uM after 24 to 48 hrs in absence of irradiation by propidium iodide staining-based flow cytometric method; settings: human
[3] = Anticlonogenic activity against HMLE-shGFP cells at 1 uM irradiated at 350 nm at 4 hrs post compound addition for 5 mins measured after 24 hrs by crystal violet staining-based assay; format: cell-based; settings: human
[4] = Drug uptake in cytoplasm of HMLE-shGFP cells at 5 uM irradiated at 420 nm for 5 mins measured after 2 to 3 hrs by confocal microscopic method; format: ADME, subcellular; settings: human
[5] = Drug uptake in nucleus of HMLE-shGFP cells at 5 uM irradiated at 420 nm for 5 mins measured after 2 to 3 hrs by confocal microscopic method; format: ADME, subcellular; settings: human
[6] = Drug uptake in cytoplasm of HMLE-shEcad cells at 5 uM in absence of irradiation measured after 2 to 3 hrs by confocal microscopic method; format: ADME, subcellular; settings: human
[7] = Cell cycle arrest in HMLE-shGFP cells assessed as delay in S/G2 phase at 5 uM irradiated at 420 nm at 4 hrs post compound addition for 5 mins measured after 24 to 48 hrs by propidium iodide staining-based flow cytometric method; settings: human
[8] = Drug uptake in nucleus of HMLE-shEcad cells at 5 uM in absence of irradiation measured after 2 to 3 hrs by confocal microscopic method; format: ADME, subcellular; settings: human
HMLE [9] = assay: Cell cycle arrest in HMLE-shEcad cells assessed as delay in S/G2 phase at 5 uM irradiated at 420 nm at 4 hrs post compound addition for 5 mins measured after 24 to 48 hrs by propidium iodide staining-based flow cytometric method; format: functional; settings: Homo sapiens
MCF7 [10] = assay: Photocytotoxicity against human MCF7 cells assessed as growth inhibition irradiated at 420 nm at 4, 24, 48 hrs post compound addition for 5 mins measured after 72 hrs by MTT assay; format: functional, cell-based; settings: MCF7, light or radiation study
HCT-116 [11] = assay: Photocytotoxicity against human HCT116 cells assessed as growth inhibition irradiated at 420 nm at 4, 24, 48 hrs post compound addition for 5 mins measured after 72 hrs by MTT assay; format: functional, cell-based; settings: HCT-116, light or radiation study
[12] = Dark toxicity against human MCF7 cells after 72 hrs by MTT assay; format: cell-based
NCI-H460 [13] = assay: Photocytotoxicity against human H460 cells assessed as growth inhibition irradiated at 350 nm at 4, 24, 48 hrs post compound addition for 5 mins measured after 72 hrs by MTT assay; format: functional, cell-based; settings: NCI-H460, light or radiation study
[14] = Dark toxicity against human HCT116 cells after 72 hrs by MTT assay; format: cell-based, HCT-116
[15] = Photocytotoxicity against HMLE-shGFP cells assessed as growth inhibition irradiated at 420 nm at 4, 24, 48 hrs post compound addition for 5 mins measured after 72 hrs by MTT assay; format: cell-based; settings: Homo sapiens, light or radiation study
[16] = Cell cycle arrest in HMLE-shEcad cells at 1 to 5 uM after 24 to 48 hrs in absence of irradiation by propidium iodide staining-based flow cytometric method; settings: human
[17] = Drug uptake in intracellular membranes of HMLE-shGFP cells at 5 uM irradiated at 420 nm for 5 mins measured after 2 to 3 hrs by confocal microscopic method; format: ADME, cell membranes, Intracellular membrane; settings: human
[18] = Drug uptake in plasma membranes of HMLE-shGFP cells at 5 uM irradiated at 420 nm for 5 mins measured after 2 to 3 hrs by confocal microscopic method; format: ADME, cell membranes, Plasma membrane; settings: human
[19] = Photocytotoxicity against HMLE-shEcad cells assessed as growth inhibition irradiated at 420 nm at 4, 24, 48 hrs post compound addition for 5 mins measured after 72 hrs by MTT assay; format: functional, cell-based; settings: Homo sapiens, light or radiation study
NCI-H460 [20] = assay: Photocytotoxicity against human H460 cells assessed as growth inhibition irradiated at 420 nm at 4, 24, 48 hrs post compound addition for 5 mins measured after 72 hrs by MTT assay; format: functional, cell-based; settings: NCI-H460, light or radiation study
MCF7 [21] = assay: Photocytotoxicity against human MCF7 cells assessed as growth inhibition irradiated at 350 nm at 4, 24, 48 hrs post compound addition for 5 mins measured after 72 hrs by MTT assay; format: functional, cell-based; settings: MCF7, light or radiation study
HCT-116 [22] = assay: Photocytotoxicity against human HCT116 cells assessed as growth inhibition irradiated at 350 nm at 4, 24, 48 hrs post compound addition for 5 mins measured after 72 hrs by MTT assay; format: functional, cell-based; settings: HCT-116, light or radiation study
[23] = Dark toxicity against HMLE-shEcad cells after 72 hrs by MTT assay; format: cell-based; settings: human
[24] = Dark toxicity against HMLE-shGFP cells after 72 hrs by MTT assay; format: cell-based; settings: human
[25] = Cytotoxicity against HMLE-shGFP cells at 10 uM irradiated at 420 nm at 4 hrs post compound addition for 5 mins measured after 48 hrs by propidium iodide staining-based flow cytometric method; format: cell-based; settings: human
SUM-159-PT [26] = assay: Cell cycle arrest in human SUM159 cells in presence of irradiation; format: functional, cell-based
HMLE [27] = assay: Anticlonogenic activity against HMLE-shEcad cells at 1 uM irradiated at 350 nm at 4 hrs post compound addition for 5 mins measured after 24 hrs by crystal violet staining-based assay; format: functional, cell-based; settings: Homo sapiens
SUM-159-PT [28] = assay: Photocytotoxicity against human SUM159 cells assessed as growth inhibition irradiated at 420 nm at 4, 24, 48 hrs post compound addition for 5 mins measured after 72 hrs by MTT assay; format: functional, cell-based; settings: light or radiation study
[29] = Dark toxicity against human SUM159 cells after 72 hrs by MTT assay; format: cell-based, SUM-159-PT
[30] = Induction of cell damage in HMLE-shGFP cells assessed as degradation of internal structure at 5 uM irradiated at 420 nm for 5 mins measured after 2 to 3 hrs by confocal microscopic method; format: cell-based; settings: human
[31] = Photocytotoxicity against HMLE-shEcad cells assessed as growth inhibition irradiated at 350 nm at 4, 24, 48 hrs post compound addition for 5 mins measured after 72 hrs by MTT assay; format: functional, cell-based; settings: Homo sapiens, light or radiation study
[32] = Dark toxicity against human H460 cells after 72 hrs by MTT assay; format: cell-based, NCI-H460
HMLE [33] = assay: Cytotoxicity against HMLE-shEcad cells at 10 uM irradiated at 420 nm at 4 hrs post compound addition for 5 mins measured after 48 hrs by propidium iodide staining-based flow cytometric method; format: functional, cell-based; settings: Homo sapiens
[34] = Induction of cell damage in HMLE-shGFP cells assessed as uncoupling of cytoskeleton from plasma membrane at 5 uM irradiated at 420 nm for 5 mins measured after 2 to 3 hrs by confocal microscopic method; format: cell-based; settings: human
[35] = Induction of cell damage in HMLE-shGFP cells assessed as cell swelling at 5 uM irradiated at 420 nm for 5 mins measured after 2 to 3 hrs by confocal microscopic method; format: cell-based; settings: human
MCF7 [36] = assay: Cell cycle arrest in human MCF7 cells in presence of irradiation; format: functional, cell-based
[37] = Induction of reactive oxygen species generation in HMLE-shGFP cells at 10 uM irradiated at 420 nm for 5 mins measured after 2 hrs by H2DCF-DA dye-based FACS analysis relative to non-irradiated cells; format: cell-based; settings: human
[38] = Cell cycle arrest in HMLE-shGFP cells assessed as accumulation at G2/M phase at 1 to 10 uM irradiated at 420 nm at 4 hrs post compound addition for 5 mins measured after 24 to 48 hrs by propidium iodide staining-based flow cytometric method; settings: human
HMLE [39] = assay: Cell cycle arrest in HMLE-shEcad cells assessed as accumulation at G2/M phase at 1 to 10 uM irradiated at 420 nm at 4 hrs post compound addition for 5 mins measured after 24 to 48 hrs by propidium iodide staining-based flow cytometric method; format: functional; settings: Homo sapiens
[40] = Anticlonogenic activity against HMLE-shGFP cells at 0.5 to 1 uM irradiated at 350 nm at 4 hrs post compound addition for 5 mins measured after 24 hrs by crystal violet staining-based assay; format: ADME, cell-based; settings: human
[41] = Cell cycle arrest in HMLE-shGFP cells assessed as accumulation at S phase at 1 to 10 uM irradiated at 420 nm at 4 hrs post compound addition for 5 mins measured after 24 to 48 hrs by propidium iodide staining-based flow cytometric method; settings: human
[42] = Drug uptake in nucleus of HMLE-shGFP cells at 5 uM irradiated with UV-light measured after 2 to 3 hrs by confocal microscopic method; format: ADME, subcellular; settings: human
HMLE [43] = assay: Cell cycle arrest in HMLE-shEcad cells assessed as accumulation at S phase at 1 to 10 uM irradiated at 420 nm at 4 hrs post compound addition for 5 mins measured after 24 to 48 hrs by propidium iodide staining-based flow cytometric method; format: functional; settings: Homo sapiens
[44] = Induction of reactive oxygen species generation in HMLE-shEcad cells at 10 uM irradiated at 420 nm for 5 mins measured after 2 hrs by H2DCF-DA dye-based FACS analysis relative to non-irradiated cells; format: functional, Homo sapiens
HMLE [45] = assay: Anticlonogenic activity against HMLE-shEcad cells at 0.5 to 1 uM irradiated at 350 nm at 4 hrs post compound addition for 5 mins for 5 mins measured after 24 hrs by crystal violet staining-based assay; format: functional, cell-based; settings: Homo sapiens
[46] = Drug uptake in cytoplasm of HMLE-shGFP cells at 5 uM irradiated with UV-light measured after 2 to 3 hrs by confocal microscopic method; format: ADME, subcellular; settings: human
[47] = Cell cycle arrest in HMLE-shEcad cells assessed as delay in G1/S phase at 1 to 10 uM after 24 to 48 hrs in absence of irradiation by propidium iodide staining-based flow cytometric method; settings: human
[48] = Drug uptake in nucleus of HMLE-shEcad cells at 5 uM irradiated with UV-light measured after 2 to 3 hrs by confocal microscopic method; format: ADME, subcellular; settings: human
[49] = Drug uptake in cytoplasm of HMLE-shEcad cells at 5 uM irradiated with UV-light measured after 2 to 3 hrs by confocal microscopic method; format: ADME, subcellular; settings: human

For Oc1cc2cc3ccccc3cc2cc1C(O)(c1ccccc1)c1ccccc1, the IC50 [1] was 1 µM, the Activity [2] was “Toxic” and the Activity [3] was “Toxic”. The Drug uptake [4] was “Active”, the Drug uptake [5] was “Not Active” and the Drug uptake [6] was “Active”. For the same compound, the Activity [7] was “Toxic”, the Drug uptake [8] was “Not Active” and the Activity (HMLE [9]) was “Active”. The IC50 (MCF7 [10]) was 2 µM, the IC50 (HCT-116 [11]) was 2 µM and the IC50 at 72 h [12] was 20 µM. It also gave an IC50 (NCI-H460 [13]) of 3 µM, an IC50 at 72 h [14] of 21 µM and an IC50 [15] of 2 µM. For the same compound, the Activity [16] was “Non-Toxic”, the Drug uptake [17] was “Active” and the Drug uptake [18] was “Active”. It also gave an IC50 [19] of 2 µM, an IC50 (NCI-H460 [20]) of 2 µM and an IC50 (MCF7 [21]) of 4 µM. For the same compound, the IC50 (HCT-116 [22]) was 2 µM, the IC50 at 72 h [23] was 2 µM and the IC50 at 72 h [24] was 6 µM. The Activity [25] was “Toxic”, the Activity (SUM-159-PT [26]) was “inactive” and the Activity (HMLE [27]) was “Active”. For the same compound, the IC50 (SUM-159-PT [28]) was 1 µM, the IC50 at 72 h [29] was 4 µM and the Activity [30] was “Toxic”. The IC50 [31] was 2 µM, the IC50 at 72 h [32] was 19 µM and the Activity (HMLE [33]) was “Active”. For the same compound, the Activity [34] was “Toxic”, the Activity [35] was “Toxic” and the Activity (MCF7 [36]) was “inactive”.
In the case of OCc1ccc2cc3ccccc3cc2c1, the IC50 [1] is reported as 0.6 µM, the “fold change (FC)” value [37] is reported as 4 and the Activity [38] is reported as “Non-Toxic”. For the same compound, the Activity (HMLE [39]) was “Active”, the Activity [40] was “Non-Toxic” and the Activity [41] was “Non-Toxic”. The IC50 (MCF7 [10]) was 2 µM, the Drug uptake [42] was “Not Active” and the IC50 (HCT-116 [11]) was 2 µM. For the same compound, the IC50 (NCI-H460 [13]) was 1 µM, the Activity (HMLE [43]) was “Active” and the IC50 at 72 h [14] was > 100 µM. For the same compound, the IC50 [15] was 10 µM, the “fold change (FC)” value [44] was 7 and the IC50 [19] was 2 µM. For the same compound, the IC50 (NCI-H460 [20]) was 2 µM, the IC50 (MCF7 [21]) was 0.5 µM and the IC50 (HCT-116 [22]) was 1 µM. For the same compound, the IC50 at 72 h [23] was 22 µM, the IC50 at 72 h [24] was 33 µM and the Activity [25] was “Toxic”. The Activity (SUM-159-PT [26]) was “inactive”, the IC50 (SUM-159-PT [28]) was 1 µM and the Activity (HMLE [45]) was “inactive”. For the same compound, the Drug uptake [46] was “Active”, the IC50 at 72 h [29] was 13 µM and the IC50 [31] was 1 µM. For the same compound, the IC50 at 72 h [32] was 33 µM, the Activity [47] was “Toxic” and the Activity (HMLE [33]) was “Active”. For the same compound, the Activity (MCF7 [36]) was “inactive”, the Drug uptake [48] was “Not Active” and the Drug uptake [49] was “Active”.
